In patent publication US20110190345A1, “Treatment of Psychosis with a 5HT2A Antagonist and a Metabotropic Glutamate Receptor Agonist or Potentiator” (priority 2007, published 2011):

Legend:
Assay type in all cases: in vivo, rat
[1] = test system: Male Wistar rats; experiment: Ketamine-induced psychomotor activity (locomotor activity, total distance traveled); settings: mGluR2/3 agonist 1 mpk; for whether ketamine increased psychomotor activity (locomotor response): FIG. 2, first 60 minutes after ketamine or saline, 5-HT2a antagonist 0.2 mpk
From the text: (§1) Compounds with antipsychotic efficacy are known to block Ketamine-induced psychomotor activity in rats (Bardi et al., Behavioural Pharmacology (2007), 18(2), 103-118). Male Wistar rats were received on site and housed for 7 days with food and water ad libitum. On the day of testing, animals were given vehicle (water for mGluR2/3 agonist, 1% Tween for 5-HT2A antagonist), the 5-HT2A antagonist volinanserin (0.2 mpk), the mGluR2/3 agonist (−)-2-oxa-4-aminobicyclo[3.1.0]hexane-4,6-dicarboxylate (1 mpk), or both the 5-HT2A antagonist (0.2 mpk) and the mGluR2/3 agonist (1 mpk) and placed in locomotor activity monitors. Thirty minutes later animals received a subcutaneous injection of saline or 37.5 mg/kg Ketamine and placed back into the'locomotor activity monitors for 90 minutes. Total distance traveled was used to assess locomotor behavior. The distance traveled is summed over the ninety minutes after ketamine or saline treatment.
Similarly, locomotor response was determined over the first 60 minutes after receiving ketamine or saline as a function of treatment with vehicle, the 5-HT2a antagonist (0.2 mpk), the mGluR2/3 agonist (1 mpk), or the 5-HT2a antagonist (0.2 mpk)+the mGluR2/3 agonist (1 mpk).

[2] = test system: Male Wistar rats; experiment: Amphetamine-induced psychomotor activity (locomotor activity, total distance traveled); settings: FIG. 3; summed over 90 minutes after 1.5 mg/kg s.c. amphetamine; 5-HT2a antagonist 0.2 mpk, mGluR2/3 agonist 1 mpk
From the text: as §1, with “amphetamine-induced” for “Ketamine-induced”, “1.5” for “37.5”, “amphetamine” for “Ketamine”, “the locomotor” for “the'locomotor”, “amphetamine” for “ketamine”

[3] = test system: Male Wistar rats; experiment: MK-801-induced psychomotor activity (locomotor activity, total distance traveled); settings: 5-HT2A antagonist 0.2 mpk, mGluR2/3 agonist 1 mpk; for reduction of the response to MK-801: 90 minutes after 0.2 mg/kg s.c. MK-801; for psychomotor activity, total distance traveled after MK-801: summed over 90 minutes after 0.2 mg/kg s.c. MK-801, control≃200 cm, MK-801 alone≃2000 cm
Experimental: Male Wistar rats were received on site and housed for 7 days with food and water ad libitum. […] Thirty minutes later animals received a subcutaneous injection of saline or 0.2 mg/kg MK-801 and were placed back into the locomotor activity monitors for 90 minutes. Total distance traveled was used to assess locomotor behavior. The distance traveled is summed over the ninety minutes after MK-801 or saline treatment.

| SMILES | response to ketamine (psychomotor activity, distance traveled) relative to the 0-0-Ketamine group ([1]; FIG. 1, summed over 90 minutes after 37.5 mg/kg s.c. ketamine, 5-HT2A antagonist 0.2 mpk, given 30 min before) | whether ketamine increased psychomotor activity (locomotor response) [1] | influence on amphetamine-induced psychomotor activity [2] | reduction of the response to MK-801 [3] | psychomotor activity, total distance traveled after MK-801 [3] |
| --- | --- | --- | --- | --- | --- |
| NC1(C(=O)O)COC2C(C(=O)O)C21 (single isomer, unassigned; (-)) [mGluR2/3 agonist, (−)-2-oxa-4-aminobicyclo[3.1.0]hexane-4,6-dicarboxylate] | decreased the response to ketamine | ketamine increased psychomotor activity | did not influence amphetamine-induced psychomotor activity | Neither the mGluR2/3 agonist nor the 5-HT2A antagonist given alone reduced the response to MK-801 | ~1900 cm |
| COc1cccc([C@H](O)C2CCN(CCc3ccc(F)cc3)CC2)c1OC [5-HT2A antagonist, (+)-alpha-(2,3-dimethoxyphenyl)-1-[2-(4 fluorophenyl)ethyl]-4-piperidine methanol] | – | ketamine increased psychomotor activity | did not influence amphetamine-induced psychomotor activity | Neither the mGluR2/3 agonist nor the 5-HT2A antagonist given alone reduced the response to MK-801 | ~2500 cm |
